# Source: patent US11254663B2 (BRISTOL-MYERS SQUIBB COMPANY, priority 2019, dated 2022)
# Biological target: FXR (Homo sapiens (Human), UniProt Q96RI1)
# Assay: FXR EC50 (FXR agonist potency reported with each Example)
# Assay type: cell-based
# Chain of FXR (Q96RI1 262-486): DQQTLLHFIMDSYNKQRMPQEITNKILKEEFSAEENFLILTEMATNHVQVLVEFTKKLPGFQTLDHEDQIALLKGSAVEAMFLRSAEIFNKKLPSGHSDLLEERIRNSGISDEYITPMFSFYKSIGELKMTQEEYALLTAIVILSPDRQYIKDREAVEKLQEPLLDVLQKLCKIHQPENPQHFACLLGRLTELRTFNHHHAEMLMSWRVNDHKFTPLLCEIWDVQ
row,EC50 [nM],Structure (SMILES)
1,1090,"CCOC(=O)c1nc(-c2cccc(N(CC34CCC(c5nc(C6CC6)no5)(CC3)CC4)C(=O)C34CC(F)(C3)C4)c2)cs1 [Example 29, Ethyl 4-(3-(N-((4-(3-cyclopropyl-1,2,4-oxadiazol-5-yl)bicyclo[2.2.2]octan-1-yl)methyl)-3-fluorobicyclo[1.1.1]pentane-1-carboxamido)phenyl)thiazole-2-carboxylate]"
2,112,"O=C(N(CC12CCC(c3nc(C4CC4)no3)(CC1)CC2)c1cccc(-c2csc(CCl)n2)c1)C12CC(F)(C1)C2 [Example 30, N-(3-(2-(chloromethyl)thiazol-4-yl)phenyl)-N-((4-(3-cyclopropyl-1,2,4-oxadiazol-5-yl)bicyclo[2.2.2]octan-1-yl)methyl)-3-fluorobicyclo[1.1.1]pentane-1-carboxamide]"
3,260,"CC(C)(O)c1nc(-c2cccc(N(CC34CCC(c5nc(C6CC6)no5)(CC3)CC4)C(=O)C34CC(F)(C3)C4)c2)cs1 [Example 31, N-((4-(3-cyclopropyl-1,2,4-oxadiazol-5-yl)bicyclo[2.2.2]octan-1-yl)methyl)-3-fluoro-N-(3-(2-(2-hydroxypropan-2-yl)thiazol-4-yl)phenyl)bicyclo[1.1.1]pentane-1-carboxamide]"
4,756,"Cc1cc(C23CCC(CN(C(=O)C45CC(F)(C4)C5)c4cccc(-c5nc(C6CC6)no5)c4)(CC2)CC3)ccn1 [Example 32, N-(3-(3-cyclopropyl-1,2,4-oxadiazol-5-yl)phenyl)-3-fluoro-N-((4-(2-methylpyridin-4-yl)bicyclo[2.2.2]octan-1-yl)methyl)bicyclo[1.1.1]pentane-1-carboxamide]"
5,1520,"Cc1noc(C23CCC(CN(C(=O)C45CC(F)(C4)C5)c4cccc(-c5cnc(C6CCOCC6)o5)c4)(CC2)CC3)n1 [Example 34, 3-Fluoro-N-((4-(3-methyl-1,2,4-oxadiazol-5-yl)bicyclo[2.2.2]octan-1-yl)methyl)-N-(3-(2-(tetrahydro-2H-pyran-4-yl)oxazol-5-yl)phenyl)bicyclo[1.1.1]pentane-1-carboxamide]"
6,251,"O=C(N(CC12CCC(c3nc(C4CC4)no3)(CC1)CC2)c1cccc(-c2cnc(C3CCOCC3)o2)c1)C12CC(F)(C1)C2 [Example 35, N-((4-(3-cyclopropyl-1,2,4-oxadiazol-5-yl)bicyclo[2.2.2]octan-1-yl)methyl)-3-fluoro-N-(3-(2-(tetrahydro-2H-pyran-4-yl)oxazol-5-yl)phenyl)bicyclo[1.1.1]pentane-1-carboxamide]"
7,497,"O=C(C1CC(F)(F)C1)N(CC12CCC(c3nc(C4CC4)no3)(CC1)CC2)c1cccc(-c2cnc(C3CCOCC3)o2)c1 [Example 36, N-((4-(3-cyclopropyl-1,2,4-oxadiazol-5-yl)bicyclo[2.2.2]octan-1-yl)methyl)-3,3-difluoro-N-(3-(2-(tetrahydro-2H-pyran-4-yl)oxazol-5-yl)phenyl)cyclobutane-1-carboxamide]"
8,82,"Cc1cnc(C23CCC(CN(C(=O)C45CC(F)(C4)C5)c4cccc(-c5nc(C6CC6)no5)c4)(CC2)CC3)o1 [Example 37, N-(3-(3-cyclopropyl-1,2,4-oxadiazol-5-yl)phenyl)-3-fluoro-N-((4-(5-methyloxazol-2-yl)bicyclo[2.2.2]octan-1-yl)methyl)bicyclo[1.1.1]pentane-1-carboxamide]"
9,308,"Cc1cnc(C23CCC(CN(C(=O)C4CCC(F)(F)C4)c4cccc(-c5nc(C6CC6)no5)c4)(CC2)CC3)o1 (stereo not shown) [Example 39, N-(3-(3-cyclopropyl-1,2,4-oxadiazol-5-yl)phenyl)-3,3-difluoro-N-((4-(5-methyloxazol-2-yl)bicyclo[2.2.2]octan-1-yl)methyl)cyclopentane-1-carboxamide]"
10,243,"O=C(N(CC12CCC(c3nc(C4CC4)no3)(CC1)CC2)c1cccc(-c2nc(C(F)F)co2)c1)C12CC(F)(C1)C2 [Example 40, N-((4-(3-cyclopropyl-1,2,4-oxadiazol-5-yl)bicyclo[2.2.2]octan-1-yl)methyl)-N-(3-(4-(difluoromethyl)oxazol-2-yl)phenyl)-3-fluorobicyclo[1.1.1]pentane-1-carboxamide]"
11,258,"Cc1cnc(C23CCC(CN(C(=O)C45CC(F)(C4)C5)c4cccc(-c5nc(C(F)F)co5)c4)(CC2)CC3)o1 [Example 45, N-(3-(4-(difluoromethyl)oxazol-2-yl)phenyl)-3-fluoro-N-((4-(5-methyloxazol-2-yl)bicyclo[2.2.2]octan-1-yl)methyl)bicyclo[1.1.1]pentane-1-carboxamide]"
12,437,"Cc1cnc(C23CCC(CN(c4cccc(-c5nc(C(F)F)co5)c4)C(=O)[C@H]4C[C@](O)(C(F)(F)F)C4)(CC2)CC3)o1 [Example 46, (cis)-N-(3-(4-(difluoromethyl)oxazol-2-yl)phenyl)-3-hydroxy-N-((4-(5-methyloxazol-2-yl)bicyclo[2.2.2]octan-1-yl)methyl)-3-(trifluoromethyl)cyclobutane-1-carboxamide]"
13,299,"CCc1noc(-c2cccc(N(CC34CCC(c5ccc(C(C)(C)C#N)cc5)(CC3)OC4)C(=O)C34CC(F)(C3)C4)c2)n1 [Example 47, N-((1-(4-(2-cyanopropan-2-yl)phenyl)-2-oxabicyclo[2.2.2]octan-4-yl)methyl)-N-(3-(3-ethyl-1,2,4-oxadiazol-5-yl)phenyl)-3-fluorobicyclo[1.1.1]pentane-1-carboxamide]"
14,299,"CCc1noc(-c2cccc(N(CC34CCC(c5ccc(C(C)(C)C#N)cc5)(CC3)OC4)C(=O)C3CCC3)c2)n1 [Example 48, N-((1-(4-(2-cyanopropan-2-yl)phenyl)-2-oxabicyclo[2.2.2]octan-4-yl)methyl)-N-(3-(3-ethyl-1,2,4-oxadiazol-5-yl)phenyl)cyclobutanecarboxamide]"
15,1370,"O=C(C1CC(F)(F)C1)N(CC12CCC(c3cc(C(F)(F)F)ccn3)(CC1)CC2)c1cccc(-c2nc(C3CC3)no2)c1 [Example 49, N-(3-(3-cyclopropyl-1,2,4-oxadiazol-5-yl)phenyl)-3,3-difluoro-N-((4-(4-(trifluoromethyl)pyridin-2-yl)bicyclo[2.2.2]octan-1-yl)methyl)cyclobutane-1-carboxamide]"
16,25,"CCOc1ncc(-c2cccc(N(CC34CCC(c5ccc(C(C)(C)C#N)cc5)(CC3)OC4)C(=O)C34CC(F)(C3)C4)c2)o1 [Example 51, N-((1-(4-(2-cyanopropan-2-yl)phenyl)-2-oxabicyclo[2.2.2]octan-4-yl)methyl)-N-(3-(2-ethoxyoxazol-5-yl)phenyl)-3-fluorobicyclo[1.1.1]pentane-1-carboxamide]"
17,242,"CCCc1ncc(-c2cccc(N(CC34CCC(c5cc(C(F)(F)F)ccn5)(CC3)CC4)C(=O)C34CC(F)(C3)C4)c2)o1 [Example 52, 3-fluoro-N-(3-(2-propyloxazol-5-yl)phenyl)-N-((4-(4-(trifluoromethyl)pyridin-2-yl)bicyclo[2.2.2]octan-1-yl)methyl)bicyclo[1.1.1]pentane-1-carboxamide]"
18,81,"CCOc1nnc(-c2cccc(N(CC34CCC(c5nc(C6CC6)no5)(CC3)CC4)C(=O)C34CC(F)(C3)C4)c2)o1 [Example 53, N-((4-(3-cyclopropyl-1,2,4-oxadiazol-5-yl)bicyclo[2.2.2]octan-1-yl)methyl)-N-(3-(5-ethoxy-1,3,4-oxadiazol-2-yl)phenyl)-3-fluorobicyclo[1.1.1]pentane-1-carboxamide]"

row,Structure (SMILES),EC50 [nM]
1,"Cc1cc(C23CCC(CN(C(=O)C4CCC(F)(F)C4)c4cccc(-c5nc(C6CC6)no5)c4)(CC2)CC3)ccn1 (stereo not shown) [Example 33, N-(3-(3-cyclopropyl-1,2,4-oxadiazol-5-yl)phenyl)-3,3-difluoro-N-((4-(2-methylpyridin-4-yl)bicyclo[2.2.2]octan-1-yl)methyl)cyclopentane-1-carboxamide]",4320
2,"O=C(C1CC(F)(F)C1)N(CC12CCC(c3nc(C4CC4)no3)(CC1)CC2)c1cccc(-c2nc(C(F)F)co2)c1 [Example 41, N-((4-(3-cyclopropyl-1,2,4-oxadiazol-5-yl)bicyclo[2.2.2]octan-1-yl)methyl)-N-(3-(4-(difluoromethyl)oxazol-2-yl)phenyl)-3,3-difluorocyclobutane-1-carboxamide]",465
3,"O=C([C@H]1C[C@](O)(C(F)(F)F)C1)N(CC12CCC(c3nc(C4CC4)no3)(CC1)CC2)c1cccc(-c2nc(C(F)F)co2)c1 [Example 42, (1s, 3s)-N-((4-(3-cyclopropyl-1,2,4-oxadiazol-5-yl)bicyclo[2.2.2]octan-1-yl)methyl)-N-(3-(4-(difluoromethyl)oxazol-2-yl)phenyl)-3-hydroxy-3-(trifluoromethyl)cyclobutane-1-carboxamide]",613
4,"O=C(C1CC(C(F)F)C1)N(CC12CCC(c3nc(C4CC4)no3)(CC1)CC2)c1cccc(-c2nc(C(F)F)co2)c1 (stereo not shown) [Example 43, N-((4-(3-cyclopropyl-1,2,4-oxadiazol-5-yl)bicyclo[2.2.2]octan-1-yl)methyl)-3-(difluoromethyl)-N-(3-(4-(difluoromethyl)oxazol-2-yl)phenyl)cyclobutane-1-carboxamide]",851
5,"O=C(C1CCC(F)(F)C1)N(CC12CCC(c3nc(C4CC4)no3)(CC1)CC2)c1cccc(-c2nc(C(F)F)co2)c1 (stereo not shown) [Example 44, N-((4-(3-cyclopropyl-1,2,4-oxadiazol-5-yl)bicyclo[2.2.2]octan-1-yl)methyl)-N-(3-(4-(difluoromethyl)oxazol-2-yl)phenyl)-3,3-difluorocyclopentane-1-carboxamide]",646
6,"O=C(N(CC12CCC(c3cc(C(F)(F)F)ccn3)(CC1)CC2)c1cccc(-c2nc(C3CC3)no2)c1)C12CC(F)(C1)C2 [Example 50, N-(3-(3-cyclopropyl-1,2,4-oxadiazol-5-yl)phenyl)-3-fluoro-N-((4-(4-(trifluoromethyl)pyridin-2-yl)bicyclo[2.2.2]octan-1-yl)methyl)bicyclo[1.1.1]pentane-1-carboxamide]",462
7,"CCOc1nnc(-c2cccc(N(CC34CCC(c5nc(C6CC6)no5)(CC3)CC4)C(=O)C3CCC3)c2)o1 [Example 54, N-((4-(3-cyclopropyl-1,2,4-oxadiazol-5-yl)bicyclo[2.2.2]octan-1-yl)methyl)-N-(3-(5-ethoxy-1,3,4-oxadiazol-2-yl)phenyl)cyclobutanecarboxamide]",215
